Source: US20230141034A1, “ADAMANTANE-1-CARBONYL THIOUREA, AS P2X RECEPTOR ANTAGONIST” (COMSATS UNIVERSITY ISLAMABAD, priority 2021, published 2023)

Columns and labels:
h-P2X2 = target: T1, h-P2X2 (Homo sapiens, UniProt Q9UBL9); assay: Ca2+ flux assay h-P2X2; conditions: for inhibition at 50 µM: read-out: h-P2X2 % Inhibition
T1 sequence (Q9UBL9 1-471): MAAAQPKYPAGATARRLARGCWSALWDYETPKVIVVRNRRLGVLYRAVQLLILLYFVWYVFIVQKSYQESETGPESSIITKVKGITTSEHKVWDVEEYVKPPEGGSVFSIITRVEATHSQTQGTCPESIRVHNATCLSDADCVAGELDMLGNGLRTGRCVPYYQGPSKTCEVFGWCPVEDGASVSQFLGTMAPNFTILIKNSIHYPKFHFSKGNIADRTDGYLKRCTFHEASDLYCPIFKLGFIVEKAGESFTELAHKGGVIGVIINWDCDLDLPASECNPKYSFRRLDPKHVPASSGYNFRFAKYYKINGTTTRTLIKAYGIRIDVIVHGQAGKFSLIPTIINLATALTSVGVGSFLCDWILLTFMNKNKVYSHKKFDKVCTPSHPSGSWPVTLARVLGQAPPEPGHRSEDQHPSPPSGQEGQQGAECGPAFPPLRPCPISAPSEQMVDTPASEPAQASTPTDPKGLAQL
Procedure: (§5) Compounds were initially analyzed at a final concentration of about 50 μM and percentage of inhibition was calculated.
(§6) Calcium Mobilization Assay to Measure P2X Receptors Response Cell Culture: P2X receptors functions can be analyzed from ATP-induced increase in cytosolic Ca^2+ concentration. Two Ca^2+ chelating dyes, Fura-2 AM and Fluo-4 AM can be used to determine the intracellular Ca^2+ concentration through a fluorescent imaging micro-titer plate reader (BMG Labtech: FLUOstar Galaxy®). Non-transfected human 1321N1 astrocytoma cells, as well as P2X receptors transfected human 1321N1 astrocytoma cells will be cultured in T-75 cm^2 cell culture flask having appropriate cell culture growth media; Dulbecco's Modified Eagle's medium (DMEM) supplemented with 10% fetal bovine serum (FBS), 75 μg/mL of Hygromycin B or human P2X receptors transfected cell lines and 1% pen-strep (antibiotics). Cells will be incubated at 37° C. in 5% CO2 incubator until 80 to 90% cell confluency will be achieved. Cells will be maintained in an exponential growth phase throughout the experiment and closely monitored for contamination.
Measurement of Ca^2+ Flux
(§7) When 1321N1 cells will reach 80 to 90% of confluency, cells will be harvested from T-75 cm^2 flask by trypsinization. After washing the cells with phosphate buffer saline (PBS), cells will be seeded at a density of 20,000 cells/well in black, clear bottom, poly-D-lysine coated 96 well plate. After 16 to 24 h, cell culture media will be removed and add Hank's balanced salt solution (HBSS) containing 3 μM Ca^2+ chelating dyes Fura-2 AM or Fluo-4 AM. After 1 h of incubation at 23° C., the loading dye solution will be removed, and added seven to eight dilutions of test compounds in triplicate format. ATP (at a concentration value of EC80) or buffer will be added and measured the excitation and emission at 340/520 nm and 380/520 nm through FLUOStar Galaxy®. Assay volume for the experiment will be 200 μL. IC50 and EC50 values will be calculated by PRISM 5.0 (GrapgPad, San Diego, Calif., USA) through non-linear regression analysis.

[1] = tested on: human 1321N1 Astrocytoma cell line; assay: MTT cytotoxicity assay, human 1321N1 astrocytoma cell line; assay type: cell-based; conditions: final concentration of 50 μM
Procedure: (§1) Cellular safety profiling of adamantane thioureas were done through MTT assay. All compounds were analyzed for toxicity at final concentration of 50 μM. […] Toxicity was determined against two cancer cell lines including human 1321N1 Astrocytoma cell line, HeLa cell line and a normal HEK-293 cell line.
(§2) c. Cell Viability Assay (MTT Assay)
(§3) After 24 h of incubation at 37° C. in CO2 incubator, culture media will be replaced with serum-free media along with test compounds and re-incubate. After 24 h, media will be removed and add 100 μL of MTT reagent (0.5-5 mg/mL) and will be incubated for a further 4 h, at 37° C. Absorbance will be measured at 570 and 630 nm to calculate cell viability.

h-P2X7 [2] = target: T2, h-P2X7 (Homo sapiens, UniProt Q99572); assay: Ca2+ flux assay h-P2X7; conditions: for IC50: read-out: h-P2X7 IC50 ± SEM, Ca2+ flux, n = 3
T2 sequence (Q99572 1-595): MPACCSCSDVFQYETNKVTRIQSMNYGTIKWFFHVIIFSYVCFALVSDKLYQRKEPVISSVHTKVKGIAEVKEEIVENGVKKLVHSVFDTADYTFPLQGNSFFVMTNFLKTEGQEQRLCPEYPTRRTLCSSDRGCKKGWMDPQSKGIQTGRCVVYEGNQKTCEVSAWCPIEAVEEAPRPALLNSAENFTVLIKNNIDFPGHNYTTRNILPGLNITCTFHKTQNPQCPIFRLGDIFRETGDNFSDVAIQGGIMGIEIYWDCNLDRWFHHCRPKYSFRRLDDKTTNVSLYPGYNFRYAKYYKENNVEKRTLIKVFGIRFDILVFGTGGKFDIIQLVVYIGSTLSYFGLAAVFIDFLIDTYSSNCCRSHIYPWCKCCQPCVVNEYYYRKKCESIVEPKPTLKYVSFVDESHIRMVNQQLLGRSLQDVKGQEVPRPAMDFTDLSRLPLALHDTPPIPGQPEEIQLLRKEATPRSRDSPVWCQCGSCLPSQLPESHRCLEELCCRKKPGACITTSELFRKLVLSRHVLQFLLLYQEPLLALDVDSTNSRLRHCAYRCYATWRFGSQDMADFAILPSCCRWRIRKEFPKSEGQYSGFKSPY
Procedure: as §5, §6
Measurement of Ca^2+ Flux
as §7

HeLa cell line = assay: MTT cytotoxicity assay, HeLa cell line; assay type: cell-based; conditions: final concentration of 50 μM
Procedure: as §1, §2, §3

HEK-293 cell line = assay: MTT cytotoxicity assay, HEK-293 cell line; assay type: cell-based; conditions: final concentration of 50 μM
Procedure: as §1, §2, §3

h-P2X7 [3] = target: T2, h-P2X7; assay: BzATP induced Ethidium Bromide dye-uptake assay (pore formation); assay type: cell-based; design: expressed in transfected cells; host or cells: human 1321N1 astrocytoma cells; conditions: for Emax at 20 µM: read-out: Emax % (at 20 μM inhibitor concentration), BzATP induced Ethidium Bromide dye uptake, 20 μM inhibitor concentration, BzATP without inhibitor = 100; for IC50: serial dilution curves, read-out: IC50 ± SEM, BzATP induced Ethidium Bromide dye uptake
Text: This is a specific assay to access the activities of P2X7R. Prolong exposure of P2X7R leads to pore formation that results intake of large molecular weight dye through this pore. An inhibitor of P2X7R inhibits this pore formation that confirms the inhibitory potential of compounds.
e. Ethidium Bromide Dye-Uptake Assay for P2X7 Receptors: (Pore Formation)
Human astrocytoma 1321N1 cells stably expressing P2X7 receptors will be seeded in the black wall, clear bottom and poly-D-lysine coated 96 wells plate at a cell density of 20,000 cells/well. After 24 h of incubation, culture medium will be removed, and wash the cells with dye uptake buffer. Cells will be treated with ethidium bromide with the subsequent addition of different concentrations of Bz-ATP to 96 wells plate in triplicate format. […] For screening of P2X7 receptor antagonists, cells will be treated with different concentrations of test compounds for 15 min at 37° C. before the addition of Bz-ATP.

[4] = MTT cytotoxicity assay, human 1321N1 astrocytoma cell line; assay type: cell-based; conditions: human, 1321N1 astrocytoma cells, final concentration of 50 μM
Procedure: as §1, §2, §3

h-P2X4 [5] = target: T3, h-P2X4 (Homo sapiens, UniProt Q99571); assay: Ca2+ flux assay h-P2X4; conditions: for IC50: read-out: h-P2X4 IC50 ± SEM, Ca2+ flux, n = 3
T3 sequence (Q99571 1-388): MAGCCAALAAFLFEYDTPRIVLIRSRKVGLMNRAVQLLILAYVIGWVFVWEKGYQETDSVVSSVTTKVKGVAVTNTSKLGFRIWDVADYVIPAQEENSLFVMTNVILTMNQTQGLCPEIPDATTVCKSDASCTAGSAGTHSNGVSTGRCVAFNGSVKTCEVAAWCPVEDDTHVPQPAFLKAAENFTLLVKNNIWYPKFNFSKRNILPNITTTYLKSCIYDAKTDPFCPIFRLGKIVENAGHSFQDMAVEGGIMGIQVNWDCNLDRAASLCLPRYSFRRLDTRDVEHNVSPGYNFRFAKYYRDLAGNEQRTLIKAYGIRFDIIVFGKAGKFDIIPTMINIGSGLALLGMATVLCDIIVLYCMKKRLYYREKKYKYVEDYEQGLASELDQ
Procedure: as §5, §6
Measurement of Ca^2+ Flux
as §7

[6] = MTT cytotoxicity assay, HeLa cell line; assay type: cell-based; conditions: human, HeLa cells, final concentration of 50 μM
Procedure: as §1, §2, §3

[7] = MTT cytotoxicity assay, HEK-293 cell line; assay type: cell-based; conditions: human, HEK-293 cells, final concentration of 50 μM
Procedure: as §1, §2, §3

h-P2X5 = h-P2X5 (Homo sapiens, UniProt Q93086); assay: Ca2+ flux assay h-P2X5; conditions: read-out: h-P2X5 % Inhibition
h-P2X5, sequence (Q93086 whole entry): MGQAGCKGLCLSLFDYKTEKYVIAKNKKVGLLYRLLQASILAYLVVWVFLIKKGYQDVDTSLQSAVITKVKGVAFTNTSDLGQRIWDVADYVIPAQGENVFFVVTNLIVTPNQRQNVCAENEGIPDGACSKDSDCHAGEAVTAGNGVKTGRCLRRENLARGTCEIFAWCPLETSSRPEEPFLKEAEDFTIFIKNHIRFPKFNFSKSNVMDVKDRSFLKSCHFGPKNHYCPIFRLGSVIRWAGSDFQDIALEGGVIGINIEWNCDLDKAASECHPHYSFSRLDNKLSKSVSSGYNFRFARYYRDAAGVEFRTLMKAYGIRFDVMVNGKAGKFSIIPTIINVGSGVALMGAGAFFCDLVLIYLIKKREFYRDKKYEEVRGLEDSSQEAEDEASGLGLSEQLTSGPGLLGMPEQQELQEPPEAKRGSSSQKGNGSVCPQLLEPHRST
Procedure: as §5, §6
Measurement of Ca^2+ Flux
as §7

h-P2X4 [8] = target: T3, h-P2X4; assay: Mode of receptor inhibition, ATP dose-response curve at h-P2X4R; assay type: cell-based; design: expressed in transfected cells; host or cells: human 1321N1 astrocytoma cells
Procedure: (§4) Different dilutions of compounds were administered to receptors expressed cell line.

h-P2X7 [9] = target: T2, h-P2X7; assay: Mode of receptor inhibition, BzATP dose-response curve at h-P2X7R; assay type: cell-based; design: expressed in transfected cells; host or cells: human 1321N1 astrocytoma cells
Procedure: as §4

IC50 (h-P2X7 [2])	inhibition at 50 µM (h-P2X2)	inhibition at 50 µM (h-P2X5)	Compound	Human 1321N1 Astrocytoma Cell Line (% cytotoxicity) [1]	HeLa Cell Line (% cytotoxicity) (HeLa cell line)	HEK-293 Cell Line (% cytotoxicity) (HEK-293 cell line)	cytotoxicity at 24 h, 50 µM [4]	cytotoxicity at 24 h, 50 µM [6]	cytotoxicity at 24 h, 50 µM [7]	further results
99 ± 70 nM	13.2%	25.5%	O=C(NC(=S)Nc1cccnc1Cl)C12CC3CC(CC(C3)C1)C2 [If, N-((2-chloropyridin-3-yl)carbamothioyl)adamantane-1-carboxamide]				11.4%	5.21%	4.95%	Emax at 20 µM (h-P2X7 [3]): 47%; IC50 (h-P2X7 [3]): 310 ± 70 nM; IC50 (h-P2X4 [5]): 1270 ± 110 nM
			Cc1nc(N=Nc2ccc(S(=O)(=O)O)cc2S(=O)(=O)O)c(COP(=O)(O)O)c(C=O)c1O [PPADS, reference compound]	19.02%	17.92%	42.58%				
			Nc1ncnc2c1ncn2[C@@H]1O[C@H](COP(=O)(O)OP(=O)(O)OP(=O)(O)O)[C@@H](O)[C@H]1O [ATP, reference compound]							EC50 (h-P2X4 [8]; ATP without inhibitor, read-out: EC50 of ATP induced response): 5450 nM
			Nc1ncnc2c1ncn2[C@@H]1O[C@H](COP(=O)(O)OP(=O)(O)OP(=O)(O)O)[C@@H](OC(=O)c2ccc(C(=O)c3ccccc3)cc2)[C@H]1O [BzATP, reference compound]							EC50 (h-P2X7 [9]; BzATP without inhibitor, read-out: EC50 of BzATP induced response): 7090 nM
73 ± 40 nM	15.3%	31.5%	O=C(NC(=S)Nc1cccc2cccnc12)C12CC3CC(CC(C3)C1)C2 [Io, N-(quinolin-8-ylcarbamothioyl)adamantane-1-carboxamide]				9.12%	6.22%	17.6%	Emax at 20 µM (h-P2X7 [3]): 70%; IC50 (h-P2X7 [3]): 136 ± 20 nM; inhibition at 50 µM (h-P2X4 [5]; read-out: h-P2X4 % Inhibition): 25.1%; mechanism of receptor inhibition (h-P2X7 [9]; h-P2X7R expressed cell line, different dilutions of compound): negative allosteric modulators
	30.2%	12.4%	CC(C)c1ccc(NC(=S)NC(=O)C23CC4CC(CC(C4)C2)C3)c(Br)c1 [Ip, N-((2-bromo-4-isopropylphenyl)carbamothioyl)adamantane-1-carboxamide]				19.7%	23.5%	20.6%	mechanism of receptor inhibition (h-P2X4 [8]; h-P2X4R expressed cell line, different dilutions of compound): negative allosteric modulators; IC50 (h-P2X4 [5]): 40 ± 10 nM; inhibition at 50 µM (h-P2X7 [2]; read-out: h-P2X7 % Inhibition): 42.5%
			CC(C)c1cc(Br)c(NC(=O)Nc2cccnc2)c(Br)c1 [BX-430, reference compound]	20.21%	9.12%	2.85%				

Compound	IC50 (h-P2X7 [2])	inhibition at 50 µM (h-P2X2)	inhibition at 50 µM (h-P2X5)	Human 1321N1 Astrocytoma Cell Line (% cytotoxicity) [1]	HeLa Cell Line (% cytotoxicity) (HeLa cell line)	HEK-293 Cell Line (% cytotoxicity) (HEK-293 cell line)	cytotoxicity at 24 h, 50 µM [4]	cytotoxicity at 24 h, 50 µM [6]	cytotoxicity at 24 h, 50 µM [7]	further results
Nc1c(S(=O)(=O)O)cc(Nc2ccc(Nc3nc(Cl)nc(Nc4cccc(S(=O)(=O)O)c4)n3)c(S(=O)(=O)O)c2)c2c1C(=O)c1ccccc1C2=O [Reactive Blue 2, reference compound]	2790 ± 220 nM			20.82%	14.47%	39.89%				IC50 (h-P2X2; read-out: h-P2X2 IC50 ± SEM, Ca2+ flux, n = 3): 890 ± 410 nM
